The source of these data is patent publication US20180179198A1, “TRICYCLIC MODULATORS OF TNF SIGNALING” (AbbVie Inc., priority 2015, published 2018).

Some results are limits rather than exact numbers.

The target in the test is TNFα trimer (Homo sapiens, UniProt P01375). Put plainly: TNFα FP Competitive Binding Assay. The settings on record: fluorescence polarization competition; 20 nM TNFα trimer, 1 nM OregonGreen488 probe; read-out: TNF IC50 (TNFα FP binding assay IC50). In outline:
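Fluorescence polarization displacement: 20 nM TNFα trimer (60 nM protein) with 1 nM fluorescein-labelled bis-isoquinoline probe in HEPES/NaCl/EDTA/Triton X-100 buffer. 12-point 1:3 compound series, top final 338 μM (3.4% DMSO) or 100 μM (2.0% DMSO); 18-24 h at 37 °C, then 1 h rt before background-subtracted mP read; variable-slope curve fit.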

What is called IC50 is the midpoint of a concentration-inhibition curve.

TNFα trimer, sequence (P01375 77-233 limits assumed): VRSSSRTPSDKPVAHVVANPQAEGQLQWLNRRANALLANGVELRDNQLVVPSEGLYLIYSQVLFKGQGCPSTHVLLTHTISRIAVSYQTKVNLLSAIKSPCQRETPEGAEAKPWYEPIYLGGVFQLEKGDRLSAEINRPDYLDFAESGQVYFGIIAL

For `O=c1cc(-c2ccc3nc4n(c3n2)[C@@H](c2ccccc2)CC4)ccn1CC1CCC(F)(F)CC1` [Example 53, (R)-1-((4,4-Difluorocyclohexyl)methyl)-4-(8-phenyl-7,8-dihydro-6H-pyrrolo[2′,1′:2,3]imidazo[4,5-b]pyridin-2-yl)pyridin-2(1H)-one], the 50% inhibitory concentration (IC50) lay within 1000 to 10000 nM.

Take `OC1CCC(Oc2cc(-c3ccc4nc5n(c4n3)C3(COC5)COc4ccccc43)ccn2)CC1` (stereo not shown) [Example 54, 4-((4-(6′,8′-dihydro-2H-spiro[benzofuran-3,9′-pyrido[3′,2′:4,5]imidazo[2,1-c][1,4]oxazin]-2′-yl)pyridin-2-yl)oxy)cyclohexanol]: the IC50 is under 1000 nM. Consider `OC1CCN(c2ncc(-c3nc4c(cc3F)nc3n4[C@@H](c4ccccc4)CC3)cn2)CC1` [Example 55, (R)-1-(5-(3-fluoro-8-phenyl-7,8-dihydro-6H-pyrrolo[2′,1′:2,3]imidazo[4,5-b]pyridin-2-yl)pyrimidin-2-yl)piperidin-4-ol], for which the IC50 was under 1000 nM. Turning to `c1ccc(C2OCCc3nc4ccc(-c5cnc(N6CCOCC6)nc5)nn4c32)cc1` (stereo not shown) [Example 56, 2-(2-morpholinopyrimidin-5-yl)-9-phenyl-7,9-dihydro-6H-pyrano[4′,3′:4,5]imidazo[1,2-b]pyridazine], the IC50 was 1000 to 10000 nM. To `COc1ccccc1C1CCOc2nc3ccc(-c4ccnc(O[C@H]5CC[C@H](O)CC5)c4)cn3c21` (stereo partly drawn) [Example 57, trans-4-((4-(4-(2-Methoxyphenyl)-3,4-dihydro-2H-pyrano[2′,3′:4,5]imidazo[1,2-a]pyridin-7-yl)pyridin-2-yl)oxy)cyclohexanol] belongs under 1000 nM; to `c1ccc2c(c1)OCCC21COCc2nc3ccc(-c4cnc(N5CCNCC5)nc4)nc3n21` (stereo not shown) [Example 59, 2′-(2-(Piperazin-1-yl)pyrimidin-5-yl)-6′H,8′H-spiro[chromane-4,9′-pyrido[3′,2′:4,5]imidazo[2,1-c][1,4]oxazine]], 1000 to 10000 nM; to `c1ccc2c(c1)OCCC21COCc2nc3ccc(-c4cnc(NC5CCOC5)nc4)nc3n21` (stereo not shown) [Example 60, 5-(6′H,8′H-Spiro[chromane-4,9′-pyrido[3′,2′:4,5]imidazo[2,1-c][1,4]oxazin]-2′-yl)-N-(tetrahydrofuran-3-yl)pyrimidin-2-amine], 1000 to 10000 nM.

In the case of `c1ccc([C@H]2CCc3nc4ccc(-c5ccnc(OCC6CCOCC6)c5)nc4n32)cc1` [Example 61, (R)-8-Phenyl-2-(2-((tetrahydro-2H-pyran-4-yl)methoxy)pyridin-4-yl)-7,8-dihydro-6H-pyrrolo[2′,1′:2,3]imidazo[4,5-b]pyridine], the IC50 fell in the range of 1000 to 10000 nM. With `CC1(C)C=C(c2ccc3nc4n(c3n2)[C@@H](c2ccccc2)CC4)CN1` [Example 62], the concentration for half-maximal inhibition (IC50) fell in the range of 10000 to 100000 nM. For `CC(C)(O)c1ncc(-c2ccc3nc4n(c3n2)C(c2ccccc2)C2CC4C2)cn1` (stereo not shown) [Example 63, 2-(5-(9-Phenyl-6,7,8,9-tetrahydro-6,8-methanoimidazo[1,2-a:5,4-b′]dipyridin-2-yl)pyrimidin-2-yl)propan-2-ol], the IC50 fell in the range of 1000 to 10000 nM. For `OC1CCN(c2ncc(-c3ccc4nc5n(c4n3)C(c3ccccc3)C3CC5C3)cn2)CC1` (stereo not shown) [Example 64, 1-(5-(9-Phenyl-6,7,8,9-tetrahydro-6,8-methanoimidazo[1,2-a:5,4-b′]dipyridin-2-yl)pyrimidin-2-yl)piperidin-4-ol], the 50% inhibitory concentration (IC50) was in the range of 1000 to 10000 nM. For the compound `CC1(C)C=C(c2ccc3nc4n(c3n2)C2(COC4)COc3ccccc32)CN1` (stereo not shown) [Example 65, 2′-(5,5-Dimethyl-2,5-dihydro-1H-pyrrol-3-yl)-6′,8′-dihydro-2H-spiro[benzofuran-3,9′-pyrido[3′,2′:4,5]imidazo[2,1-c][1,4]oxazine]], the IC50 fell in the range of 1000 to 10000 nM. With `c1ccc2c(c1)OCC21COCc2nc3ccc(-c4cnc(N5CCNCC5)nc4)nc3n21` (stereo not shown) [Example 66, 2′-(2-(Piperazin-1-yl)pyrimidin-5-yl)-2H,6′H,8′H-spiro[benzofuran-3,9′-pyrido[3′,2′:4,5]imidazo[2,1-c][1,4]oxazine]], the IC50 is 1000 to 10000 nM.

Regarding `C[C@H]1CN(c2ncc(-c3ccc4nc5n(c4n3)C3(COC5)COc4ccccc43)cn2)CCN1C(=O)CO` (stereo partly drawn) [Example 67, 1-((2S)-4-(5-(2H,6′H,8′H-Spiro[benzofuran-3,9′-pyrido[3′,2′:4,5]imidazo[2,1-c][1,4]oxazin]-2′-yl)pyrimidin-2-yl)-2-methylpiperazin-1-yl)-2-hydroxyethan-1-one], the IC50 was under 1000 nM.

Turning to `CC(C)(O)c1ncc(-c2ccc3nc4n(c3n2)C2(CCc3ccccc32)COC4)cn1` (stereo not shown) [Example 68, 2-(5-(2,3-Dihydro-6′H,8′H-spiro[indene-1,9′-pyrido[3′,2′:4,5]imidazo[2,1-c][1,4]oxazin]-2′-yl)pyrimidin-2-yl)propan-2-ol], the IC50 is under 1000 nM. With `CC(C)(O)c1ncc(-c2ccc3nc4n(c3n2)C2(COC4)CC(=O)c3ccccc32)cn1` (stereo not shown) [Example 69, 2′-(2-(2-Hydroxypropan-2-yl)pyrimidin-5-yl)-6′,8′-dihydrospiro[indene-1,9′-pyrido[3′,2′:4,5]imidazo[2,1-c][1,4]oxazin]-3(2H)-one], the 50% inhibitory concentration (IC50) was 1000 to 10000 nM. In the case of `CC(C)(O)c1ncc(-c2ccc3nc4n(c3n2)[C@@H](c2ccccc2)[C@@H]2C[C@H]4O2)cn1` [Example 70, 2-(5-((6R,8S,9S)-9-Phenyl-6,7,8,9-tetrahydro-6,8-epoxyimidazo[1,2-a:5,4-b′]dipyridin-2-yl)pyrimidin-2-yl)propan-2-ol], the IC50 is 10000 to 100000 nM. As for `OC1CCN(c2ncc(-c3ccc4nc5n(c4n3)[C@@H](c3ccccc3)[C@@H]3C[C@H]5O3)cn2)CC1` [Example 71, 1-(5-((6R,8S,9S)-9-Phenyl-6,7,8,9-tetrahydro-6,8-epoxyimidazo[1,2-a:5,4-b′]dipyridin-2-yl)pyrimidin-2-yl)piperidin-4-ol], the IC50 was 10000 to 100000 nM. `CC(C)(O)c1ncc(-c2ccc3nc4n(c3n2)C2(CCc3ccccc32)COC4O)cn1` (stereo not shown) [Example 72, 2′-(2-(2-Hydroxypropan-2-yl)pyrimidin-5-yl)-2,3-dihydro-6′H,8′H-spiro[indene-1,9′-pyrido[3′,2′:4,5]imidazo[2,1-c][1,4]oxazin]-6′-ol]: the half-maximal inhibitory concentration (IC50) lay in the range of 1000 to 10000 nM. Next, `C1=C(c2ccc3nc4n(c3n2)C2(COC4)COc3ccccc32)CCN(c2ccncn2)C1` (stereo not shown) [Example 73, 2′-(1-(Pyrimidin-4-yl)-1,2,3,6-tetrahydropyridin-4-yl)-2H,6′H,8′H-spiro[benzofuran-3,9′-pyrido[3′,2′:4,5]imidazo[2,1-c][1,4]oxazine]]: 1000 to 10000 nM; `O[C@H]1CC[C@H](Oc2cc(-c3ccc4nc5n(c4n3)[C@@]3(COC5)COc4ccccc43)ccn2)CC1` [Example 74, (1S,4r)-4-((4-((S)-6′,8′-Dihydro-2H-spiro[benzofuran-3,9′-pyrido[3′,2′:4,5]imidazo[2,1-c][1,4]oxazin]-2′-yl)pyridin-2-yl)oxy)cyclohexanol]: under 1000 nM. As to `C[C@H]1CN(c2ncc(-c3ccc4nc5n(c4n3)[C@@]3(COC5)COc4ccccc43)cn2)CCN1C(=O)CO` [Example 75, 1-((S)-4-(5-((S)-6′,8′-Dihydro-2H-spiro[benzofuran-3,9′-pyrido[3′,2′:4,5]imidazo[2,1-c][1,4]oxazin]-2′-yl)pyrimidin-2-yl)-2-methylpiperazin-1-yl)-2-hydroxyethanone], the IC50 is under 1000 nM. Consider `C1=C(c2ccc3nc4n(c3n2)[C@@H](c2ccccc2)CC4)CCN(c2ccncn2)C1` [Example 76, (R)-8-Phenyl-2-(1-(pyrimidin-4-yl)-1,2,3,6-tetrahydropyridin-4-yl)-7,8-dihydro-6H-pyrrolo[2′,1′:2,3]imidazo[4,5-b]pyridine], for which the IC50 was in the range of 1000 to 10000 nM.

Regarding `CC1(c2ccccc2)CCc2nc3ccc(-c4cnc(N5CCC(O)CC5)nc4)nc3n21` (stereo not shown) [Example 77, 1-(5-(8-Methyl-8-phenyl-7,8-dihydro-6H-pyrrolo[2′,1′:2,3]imidazo[4,5-b]pyridin-2-yl)pyrimidin-2-yl)piperidin-4-ol], the IC50 is under 1000 nM. Regarding `CC(C)(N)c1ncc(-c2ccc3nc4n(c3n2)C2(CCc3ccccc32)COC4)cn1` (stereo not shown) [Example 80, 2-(5-(2,3-Dihydro-6′H,8′H-spiro[indene-1,9′-pyrido[3′,2′:4,5]imidazo[2,1-c][1,4]oxazin]-2′-yl)pyrimidin-2-yl)propan-2-amine], the half-maximal inhibitory concentration (IC50) was under 1000 nM. In the case of `CC(C)(O)c1ncc(-c2ccc3nc4n(c3n2)C2(COC4)CC(O)c3ccccc32)cn1` (stereo not shown) [Example 81, 2′-(2-(2-Hydroxypropan-2-yl)pyrimidin-5-yl)-2,3,6′,8′-tetrahydrospiro[indene-1,9′-pyrido[3′,2′:4,5]imidazo[2,1-c][1,4]oxazin]-3-ol], the half-inhibitory concentration (IC50) is 1000 to 10000 nM. Regarding `FC1(F)CCN(c2ncc(-c3ccc4nc5n(c4n3)C(c3ccccc3)COC5)cn2)CC1` (stereo not shown) [Example 82], the concentration for half-maximal inhibition (IC50) is under 1000 nM. Consider `O[C@H]1CC[C@H](Oc2cc(-c3ccc4nc5n(c4n3)[C@@H](c3ccccc3)CC5)ccn2)CC1` [Example 83, (1R,4R)-4-((4-((R)-8-Phenyl-7,8-dihydro-6H-pyrrolo[2′,1′:2,3]imidazo[4,5-b]pyridin-2-yl)pyridin-2-yl)oxy)cyclohexanol], for which the IC50 was under 1000 nM. With `OC1CC2(CCN(c3ncc(-c4ccc5nc6n(c5c4)[C@@H](c4ccccc4)CC6)cn3)CC2)C1` [F.1], the half-maximal inhibitory concentration (IC50) was under 1000 nM. As for `OC1CCN(c2ncc(-c3ccc4nc5n(c4c3)[C@@H](c3ccccc3)CC5)cn2)CC1(F)F` (stereo partly shown) [F.2], the 50% inhibitory concentration (IC50) is under 1000 nM. Turning to `OC1CCN(c2ncc(-c3ccc4nc5n(c4c3)[C@@H](c3ccccc3)CC5)cn2)CC1` [F.3], the half-inhibitory concentration (IC50) is under 1000 nM.

`O=S1(=O)CCN(c2ncc(-c3ccc4nc5n(c4c3)[C@@H](c3ccccc3)CC5)cn2)CC1` [F.4]: the IC50 was under 1000 nM. Take `O=C1NCCC12CCN(c1ncc(-c3ccc4nc5n(c4c3)[C@@H](c3ccccc3)COC5)cn1)C2` (stereo partly shown) [G.1]: the IC50 was 1000 to 10000 nM. With `CC1CN(c2ncc(-c3ccc4nc5n(c4c3)[C@@H](c3ccccc3)COC5)cn2)CCO1` (stereo partly shown) [G.2], the concentration for half-maximal inhibition (IC50) was under 1000 nM.
